Source: patent US9796714B2, “Calcium channel agonists” (University of Pittsburgh—Of the Commonwealth System of …, priority 2013, dated 2017)
Where “and” joins values, the source holds several entries; their conditions need not be identical. Equal values may be shown once. Read-outs that look alike come from different tables or passages of the source.

Columns and labels:
[1] = target: T1, N-type Ca^2+ channel (Cav2.2) (Rattus norvegicus, UniProt Q02294); experiment: N-type Ca2+ channel agonist activity, whole-cell perforated patch clamp of tail currents in tsA201 cells; type: cell-based
T1 construct: expressed in transfected cells; later also transient transfection
T1 sequence (Q02294 whole entry): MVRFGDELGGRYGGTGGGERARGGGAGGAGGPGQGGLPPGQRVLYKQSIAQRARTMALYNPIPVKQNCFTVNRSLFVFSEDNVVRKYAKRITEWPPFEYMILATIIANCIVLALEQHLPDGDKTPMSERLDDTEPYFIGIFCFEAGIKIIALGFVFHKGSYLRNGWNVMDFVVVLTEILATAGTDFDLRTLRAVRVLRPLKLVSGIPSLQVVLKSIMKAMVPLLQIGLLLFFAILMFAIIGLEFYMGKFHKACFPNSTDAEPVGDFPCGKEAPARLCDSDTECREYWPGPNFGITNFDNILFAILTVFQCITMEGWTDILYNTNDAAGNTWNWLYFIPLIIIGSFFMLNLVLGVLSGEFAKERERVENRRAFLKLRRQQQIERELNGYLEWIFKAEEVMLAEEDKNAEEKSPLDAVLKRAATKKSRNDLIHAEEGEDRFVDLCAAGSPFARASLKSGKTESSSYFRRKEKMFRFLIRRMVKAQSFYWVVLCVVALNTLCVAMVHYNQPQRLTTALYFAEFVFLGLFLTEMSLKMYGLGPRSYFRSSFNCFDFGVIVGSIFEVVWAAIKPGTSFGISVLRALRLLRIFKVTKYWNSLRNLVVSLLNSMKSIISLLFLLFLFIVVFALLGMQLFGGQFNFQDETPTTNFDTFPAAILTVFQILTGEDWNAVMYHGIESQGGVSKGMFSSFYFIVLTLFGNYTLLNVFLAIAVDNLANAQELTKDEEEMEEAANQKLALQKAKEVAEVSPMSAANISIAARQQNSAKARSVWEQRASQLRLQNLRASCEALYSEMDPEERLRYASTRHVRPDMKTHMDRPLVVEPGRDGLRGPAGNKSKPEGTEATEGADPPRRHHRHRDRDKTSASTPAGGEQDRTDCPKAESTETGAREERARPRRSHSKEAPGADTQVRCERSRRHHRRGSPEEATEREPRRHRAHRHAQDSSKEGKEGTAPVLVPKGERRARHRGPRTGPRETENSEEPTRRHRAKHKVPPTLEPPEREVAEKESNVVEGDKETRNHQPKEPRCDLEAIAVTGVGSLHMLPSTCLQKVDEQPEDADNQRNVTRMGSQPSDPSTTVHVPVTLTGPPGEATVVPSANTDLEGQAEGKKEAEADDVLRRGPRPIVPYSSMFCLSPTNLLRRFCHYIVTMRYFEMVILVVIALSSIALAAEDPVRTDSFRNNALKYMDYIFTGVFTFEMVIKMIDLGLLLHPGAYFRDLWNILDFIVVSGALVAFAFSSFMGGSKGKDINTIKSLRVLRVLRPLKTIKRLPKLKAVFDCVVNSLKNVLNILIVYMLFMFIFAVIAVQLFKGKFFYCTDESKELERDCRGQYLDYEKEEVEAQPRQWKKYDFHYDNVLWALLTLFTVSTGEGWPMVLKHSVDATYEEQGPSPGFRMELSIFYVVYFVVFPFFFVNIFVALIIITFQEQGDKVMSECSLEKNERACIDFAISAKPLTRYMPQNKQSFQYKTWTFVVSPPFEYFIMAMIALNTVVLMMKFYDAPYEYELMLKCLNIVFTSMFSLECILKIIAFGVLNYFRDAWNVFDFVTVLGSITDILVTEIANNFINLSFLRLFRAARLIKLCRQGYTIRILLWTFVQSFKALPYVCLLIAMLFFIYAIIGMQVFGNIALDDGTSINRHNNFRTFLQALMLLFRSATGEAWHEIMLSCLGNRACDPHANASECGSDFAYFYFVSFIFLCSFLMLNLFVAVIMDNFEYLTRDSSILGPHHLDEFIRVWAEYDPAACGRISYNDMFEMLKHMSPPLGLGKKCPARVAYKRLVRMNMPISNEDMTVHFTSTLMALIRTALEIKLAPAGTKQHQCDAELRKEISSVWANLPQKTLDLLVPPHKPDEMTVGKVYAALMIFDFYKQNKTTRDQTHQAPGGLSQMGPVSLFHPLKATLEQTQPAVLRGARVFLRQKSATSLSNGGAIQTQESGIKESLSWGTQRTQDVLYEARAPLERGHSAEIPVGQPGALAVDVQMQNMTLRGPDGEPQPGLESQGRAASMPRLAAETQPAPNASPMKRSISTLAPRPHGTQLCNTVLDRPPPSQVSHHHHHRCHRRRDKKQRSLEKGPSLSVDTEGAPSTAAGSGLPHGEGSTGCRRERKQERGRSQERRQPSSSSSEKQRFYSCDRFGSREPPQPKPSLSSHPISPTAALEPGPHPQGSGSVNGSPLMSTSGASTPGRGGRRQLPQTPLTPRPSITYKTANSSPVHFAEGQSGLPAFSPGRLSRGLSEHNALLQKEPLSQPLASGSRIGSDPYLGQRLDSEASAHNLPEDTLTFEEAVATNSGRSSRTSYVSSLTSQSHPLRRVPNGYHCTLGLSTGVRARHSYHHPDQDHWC
Method: (§1) tsA201 cells expressing calcium channels. […] For subsequent evaluation of effects on N-, P/Q-, or L-type channels, tsA-201 cells were transiently transfected with Cav2.2, Cav2.1, or Cav1.3, in combination with Cavβ3 and […] (Addgene, Cambridge Mass.) using FuGENE 6 (Life Technologies, Grand Island, N.Y.). All cells were maintained in DMEM supplemented with 10% fetal bovine serum. For the stable cell line expressing N-type channels, 25 μg/mL zeocin, 5 μg/mL blasticidin, and 25 μg/mL hygromycin were added as selection agents.
(§2) Whole-cell patch clamp recordings of calcium current. […] Briefly, the pipette solution consisted of […] Cs2SO4, 60 mM CsCl, 1 mM MgCl2, 10 mM 4-(2-hydroxyethyl)-1-piperazineethanesulfonic acid (HEPES) at pH 7.4. […] Patch pipettes were fabricated from borosilicate glass and pulled to a resistance of about 1 MΩ. Before each experiment, a stock solution consisting of 3 mg amphotericin-B dissolved into 50 μL anhydrous DMSO was made. […] Capacitive currents and passive membrane responses to voltage commands were subtracted from the data. Currents were amplified by an Axopatch 200B amplifier, filtered at 5 KHz, and digitized at 10 KHz for subsequent analysis using pClamp software (Axon Instruments/Molecular Devices; Sunnyvale, Calif.). […] To measure effects on calcium channel tail currents, the tail current integral was measured before and after application of a derivative, with the integral of each trace being normalized to its peak. All experiments were carried out at room temperature (22° C.). […] All other salts and chemicals were obtained from Sigma-Aldrich chemical company (St. Louis, Mo.).
(§3) Statistical Analysis. Statistical analysis was performed using either GraphPad Prism 5 (GraphPad Software, Inc.) or Origin 7 (OriginLab) software. For the dose-response analyses on Ca^2+ current, each concentration of the four different compounds was tested in 3-6 cells. […] All EC50 and IC50 values and their respective errors were determined by performing 100 iterations of a logistic function curve fit. Data are presented as mean±s.e.m. unless otherwise noted.

[2] = target: T2, P/Q-type channels (Cav 2.1) (Rattus norvegicus, UniProt P54282); experiment: P/Q-type Ca2+ channel agonist activity, whole-cell perforated patch clamp in tsA-201 cells; type: cell-based
T2 construct: host or cells: tsA-201
T2 sequence (P54282 whole entry): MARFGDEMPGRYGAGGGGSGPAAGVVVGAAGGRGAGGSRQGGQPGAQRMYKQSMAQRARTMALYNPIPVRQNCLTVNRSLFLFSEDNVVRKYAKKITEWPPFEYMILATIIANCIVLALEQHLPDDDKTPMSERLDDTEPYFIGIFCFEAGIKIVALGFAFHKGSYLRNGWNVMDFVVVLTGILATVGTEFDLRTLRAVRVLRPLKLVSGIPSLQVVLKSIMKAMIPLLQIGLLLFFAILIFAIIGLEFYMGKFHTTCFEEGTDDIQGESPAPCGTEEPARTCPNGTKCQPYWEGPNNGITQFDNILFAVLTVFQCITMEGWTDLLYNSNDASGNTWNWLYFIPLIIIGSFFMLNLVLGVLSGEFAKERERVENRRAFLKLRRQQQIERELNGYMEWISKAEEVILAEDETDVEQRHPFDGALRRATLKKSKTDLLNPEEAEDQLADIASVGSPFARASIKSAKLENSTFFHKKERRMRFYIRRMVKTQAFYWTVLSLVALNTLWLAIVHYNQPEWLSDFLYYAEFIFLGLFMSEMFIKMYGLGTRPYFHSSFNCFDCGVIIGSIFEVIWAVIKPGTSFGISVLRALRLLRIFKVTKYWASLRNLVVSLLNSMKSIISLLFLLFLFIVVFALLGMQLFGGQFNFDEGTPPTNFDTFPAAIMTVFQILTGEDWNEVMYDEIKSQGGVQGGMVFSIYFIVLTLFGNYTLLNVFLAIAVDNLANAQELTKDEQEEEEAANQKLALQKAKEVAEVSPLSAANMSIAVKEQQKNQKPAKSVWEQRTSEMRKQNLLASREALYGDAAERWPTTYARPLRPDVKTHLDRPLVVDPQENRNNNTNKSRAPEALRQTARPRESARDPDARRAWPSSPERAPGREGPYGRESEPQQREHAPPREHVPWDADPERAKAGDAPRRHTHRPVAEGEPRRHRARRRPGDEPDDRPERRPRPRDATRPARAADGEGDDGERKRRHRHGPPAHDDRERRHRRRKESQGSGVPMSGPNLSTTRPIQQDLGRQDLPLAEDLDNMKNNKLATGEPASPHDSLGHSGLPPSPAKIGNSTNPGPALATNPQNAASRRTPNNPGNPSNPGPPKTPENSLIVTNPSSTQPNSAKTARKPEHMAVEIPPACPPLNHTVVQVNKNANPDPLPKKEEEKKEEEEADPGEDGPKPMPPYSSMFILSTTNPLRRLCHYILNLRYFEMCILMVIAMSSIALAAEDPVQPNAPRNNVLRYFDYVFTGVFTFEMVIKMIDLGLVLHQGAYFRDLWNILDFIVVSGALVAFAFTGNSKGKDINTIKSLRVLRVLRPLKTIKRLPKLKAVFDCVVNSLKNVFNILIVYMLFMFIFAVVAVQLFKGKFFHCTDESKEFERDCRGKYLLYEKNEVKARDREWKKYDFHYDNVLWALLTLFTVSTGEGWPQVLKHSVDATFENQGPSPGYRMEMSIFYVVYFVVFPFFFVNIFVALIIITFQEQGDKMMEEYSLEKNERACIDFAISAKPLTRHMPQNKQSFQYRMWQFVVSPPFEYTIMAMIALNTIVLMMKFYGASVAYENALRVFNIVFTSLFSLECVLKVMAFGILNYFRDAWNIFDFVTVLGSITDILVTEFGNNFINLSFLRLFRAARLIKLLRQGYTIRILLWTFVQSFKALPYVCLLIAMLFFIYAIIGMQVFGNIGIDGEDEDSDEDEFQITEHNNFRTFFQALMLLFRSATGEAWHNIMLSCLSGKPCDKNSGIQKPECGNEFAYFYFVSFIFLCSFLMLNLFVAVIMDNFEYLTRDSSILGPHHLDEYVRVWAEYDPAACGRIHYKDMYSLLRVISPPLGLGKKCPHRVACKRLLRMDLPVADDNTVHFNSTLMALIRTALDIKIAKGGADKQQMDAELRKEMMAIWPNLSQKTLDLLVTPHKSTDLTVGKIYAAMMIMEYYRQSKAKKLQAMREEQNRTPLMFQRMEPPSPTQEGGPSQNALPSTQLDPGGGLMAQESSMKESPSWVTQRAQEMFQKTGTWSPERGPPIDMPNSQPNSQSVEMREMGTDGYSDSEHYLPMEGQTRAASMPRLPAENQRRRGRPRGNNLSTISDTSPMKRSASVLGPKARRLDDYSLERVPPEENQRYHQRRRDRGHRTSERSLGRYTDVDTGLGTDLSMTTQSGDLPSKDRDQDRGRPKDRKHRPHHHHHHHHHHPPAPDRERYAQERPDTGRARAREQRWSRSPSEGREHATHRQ
Method: as §1, §2
Capacitive currents and passive membrane responses to voltage commands were subtracted from the data. […] All experiments were carried out at room temperature (22° C.).

Cdk1 cyclinB(h) = target: T3, Cdk1 cyclinB(h) (Homo sapiens, UniProt P06493); experiment: Kinase inhibitory activity (EMD Millipore KinaseProfiler), cdk1; type: biochemical; conditions: 20 μM highest concentration used; read-out: Cdk1 EC50/IC50 affinities
T3 construct: purchased EMD Millipore KinaseProfiler service (Millipore UK Ltd.)
Method: (§4) Kinase inhibitory activity. Kinase inhibitory activities were determined using the EMD Millipore KinaseProfiler™ service (Millipore UK Ltd.). Each compound's kinase inhibitory activity was tested at three different concentrations (0.2 μM, 2 μM, and 20 μM) against five different kinases: Cdk1 cyclinB(h), cdk2 cyclinA(h), cdk5 p35(h), mitogen-activated protein kinase (MAPK1(h)) and myosin light-chain kinase (MLCK(h)).
as §3

cdk5 p35(h) = target: T4, cdk5 p35(h) (Homo sapiens, UniProt Q00535); experiment: Kinase inhibitory activity (EMD Millipore KinaseProfiler), cdk5; type: biochemical; conditions: 20 μM highest concentration used; read-out: Cdk5 EC50/IC50 affinities
T4 construct: purchased EMD Millipore KinaseProfiler service (Millipore UK Ltd.)
T4 sequence (Q00535 whole entry): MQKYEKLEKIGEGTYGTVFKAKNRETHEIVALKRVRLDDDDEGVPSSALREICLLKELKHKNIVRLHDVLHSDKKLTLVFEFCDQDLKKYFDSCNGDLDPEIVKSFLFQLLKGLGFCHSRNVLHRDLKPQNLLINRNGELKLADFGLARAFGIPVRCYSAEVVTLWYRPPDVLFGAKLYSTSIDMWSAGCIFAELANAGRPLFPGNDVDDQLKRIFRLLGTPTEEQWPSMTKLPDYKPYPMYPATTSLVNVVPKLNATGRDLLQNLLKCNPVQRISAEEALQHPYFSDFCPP
T4 sequence (Q15078 whole entry partner): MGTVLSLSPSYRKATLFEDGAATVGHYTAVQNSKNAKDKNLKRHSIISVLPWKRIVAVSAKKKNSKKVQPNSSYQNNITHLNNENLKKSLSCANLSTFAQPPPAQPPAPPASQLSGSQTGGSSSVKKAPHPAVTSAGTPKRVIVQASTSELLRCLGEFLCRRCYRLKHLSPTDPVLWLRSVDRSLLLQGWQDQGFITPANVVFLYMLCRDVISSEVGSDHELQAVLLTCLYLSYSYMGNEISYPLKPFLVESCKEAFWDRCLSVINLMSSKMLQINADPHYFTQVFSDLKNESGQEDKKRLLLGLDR
Method: as §4, §3

[3] = target: T5, mitogen-activated protein kinase (MAPK1(h)) (Homo sapiens, UniProt P27361); experiment: Kinase inhibitory activity (EMD Millipore KinaseProfiler), MAPK1; type: biochemical; conditions: 20 μM highest concentration used; read-out: MAPK EC50/IC50 affinities
T5 construct: purchased EMD Millipore KinaseProfiler service (Millipore UK Ltd.)
Method: as §4
(§5) Statistical Analysis. […] For the dose-response analyses on Ca^2+ current, each concentration of the four different compounds was tested in 3-6 cells. […] All EC50 and IC50 values and their respective errors were determined by performing 100 iterations of a logistic function curve fit.

[4] = target: T6, myosin light-chain kinase (MLCK(h)) (Homo sapiens, UniProt Q9H1R3); experiment: Kinase inhibitory activity (EMD Millipore KinaseProfiler), MLCK; type: biochemical; conditions: 20 μM highest concentration used; read-out: MLCK EC50/IC50 affinities
T6 construct: purchased EMD Millipore KinaseProfiler service (Millipore UK Ltd.)
Method: as §4, §5

## CCCn1cnc2c(NCc3ccc(C)s3)nc(N[C@H](CC)CO)nc21 [Compound 13x, (2R)-2-[(6-{[(5-Methylthiophen-2-yl)methyl]amino}-9-propyl-9H-purin-2-yl)amino]butan-1-ol]
[1]; FIG. 4C dose response curve
  higher affinity for the calcium channel than (R)-roscovitine: 6 fold
[1]; N- and P/Q-type
  increase in efficacy as an agonist for N- and P/Q-type Ca^2+ channels vs (R)-roscovitine: ~4 fold
  increase in potency as an agonist for N- and P/Q-type Ca^2+ channels vs (R)-roscovitine: 3-4 fold
[1]; N-type
  agonist effect on the Ca^2+ channel tail currents (in words): strong agonist effect
[1]; N-type channels
  maximal fold increase in the tail current integral relative to control: ~32 fold
[1]; Table 3, calcium channel agonist, read-out: N-type EC50/IC50 affinities
  EC50: 7.21 ± 0.86 µM
[1]; read-out: 95% confidence interval for the fit (EC50) to N-type channels
  EC50: 4.6 to 9.8 µM
[1]; whole cell perforated patch clamp, deactivation (tail) currents from N-type channels, read-out: N-Type Ca^2+ Channel Activity EC50 +/− SEM
  EC50: 7.2 µM and 7.21 µM
[2]; P/Q-type channels
  increase of the tail current integral compared to control: ~33 fold
[2]; b265, read-out: agonist effects on P/Q-type calcium channels EC50
  EC50: 9.9 µM
[2]; calcium channel agonist, Cav 2.1, read-out: P/Q-type EC50/IC50 affinities
  EC50: 8.8 µM and 8.81 µM
[2]; read-out: 95% confidence interval for a fit (EC50) to P/Q channels data
  EC50: 6.7 to 14.5 µM
Cdk1 cyclinB(h)
  IC50: 20.6 ± 0.96 µM
cdk5 p35(h)
  IC50: 3.03 ± 0.32 µM
[3]
  IC50: > 20 µM
[4]
  IC50: > 20 µM
